Reference: the supplement of paper PMC8671470
± gives the standard deviation of the averaged measurements.

Assays:
HL-60 [1] = assay: area under dose-response curve (viability, 1 nM-10 uM) (fraction (0-1)); higher = more sensitive; conditions: 72 h
Outline: (§1)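 Four-parameter log-logistic fits in drc and PharmacoGx supplied area under the curve where it is given. Underlying viability came from CellTiter-Glo, normalised to DMSO and proteasome-inhibitor wells, with the proteasome inhibitor at 10 μM. HL-60 cells in RPMI 1640 plus 10% FBS had been rescreened against the full library at five tenfold concentrations of 1–10,000 nM, in duplicate on 384-well plates, with DMSO or 100 nM of one of three metabolic inhibitors, for 72 h at 37 °C, 5% CO2.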

HL-60 [2] = assay: cell viability (% survival relative to DMSO control); higher = less cytotoxic; conditions: 72 h
Outline: as §1

[3] = co-treatment: GSK2194069 100 nM
[4] = co-treatment: pictilisib 100 nM
[5] = 0.001 µM, co-treatment: AZD3965 100 nM
[6] = 0.001 µM, co-treatment: DMSO vehicle
[7] = 0.001 µM, co-treatment: GSK2194069 100 nM
[8] = 0.001 µM, co-treatment: pictilisib 100 nM
[9] = 0.01 µM, co-treatment: AZD3965 100 nM
[10] = 0.01 µM, co-treatment: DMSO vehicle
[11] = 0.01 µM, co-treatment: GSK2194069 100 nM
[12] = 0.01 µM, co-treatment: pictilisib 100 nM
[13] = 0.1 µM, co-treatment: AZD3965 100 nM
[14] = 0.1 µM, co-treatment: DMSO vehicle
[15] = 0.1 µM, co-treatment: GSK2194069 100 nM
[16] = 0.1 µM, co-treatment: pictilisib 100 nM
[17] = 1 µM, co-treatment: AZD3965 100 nM
[18] = 1 µM, co-treatment: DMSO vehicle
[19] = 1 µM, co-treatment: GSK2194069 100 nM
[20] = 1 µM, co-treatment: pictilisib 100 nM
[21] = 10 µM, co-treatment: AZD3965 100 nM
[22] = 10 µM, co-treatment: DMSO vehicle
[23] = 10 µM, co-treatment: GSK2194069 100 nM
[24] = 10 µM, co-treatment: pictilisib 100 nM

| SMILES | area under dose-response curve (HL-60 [1]; co-treatment: AZD3965 100 nM) | area under dose-response curve (HL-60 [1]; co-treatment: DMSO vehicle) | area under dose-response curve (HL-60 [1]; [3]) | area under dose-response curve (HL-60 [1]; [4]) | cell viability (HL-60 [2]; [5]) [%] | cell viability (HL-60 [2]; [6]) [%] | cell viability (HL-60 [2]; [7]) [%] | cell viability (HL-60 [2]; [8]) [%] | cell viability (HL-60 [2]; [9]) [%] | cell viability (HL-60 [2]; [10]) [%] | cell viability (HL-60 [2]; [11]) [%] | cell viability (HL-60 [2]; [12]) [%] | cell viability (HL-60 [2]; [13]) [%] | cell viability (HL-60 [2]; [14]) [%] | cell viability (HL-60 [2]; [15]) [%] | cell viability (HL-60 [2]; [16]) [%] | cell viability (HL-60 [2]; [17]) [%] | cell viability (HL-60 [2]; [18]) [%] | cell viability (HL-60 [2]; [19]) [%] | cell viability (HL-60 [2]; [20]) [%] | cell viability (HL-60 [2]; [21]) [%] | cell viability (HL-60 [2]; [22]) [%] | cell viability (HL-60 [2]; [23]) [%] | cell viability (HL-60 [2]; [24]) [%] |
| --- | --- | --- | --- | --- | --- | --- | --- | --- | --- | --- | --- | --- | --- | --- | --- | --- | --- | --- | --- | --- | --- | --- | --- | --- |
| O=C([O-])CC(O)(C(=O)[O-])C(O)C(=O)[O-].[K+].[K+].[K+] (configuration not stated) [Hydroxycitrate] | < 0.0301 | < 0.0301 | < 0.0301 | < 0.0301 | 87.2 ± 28 | 97.7 ± 6.6 | 101 ± 10 | 93.7 ± 14 | 94.9 ± 3.3 | 97.98 ± 0.11 | 99.09 ± 0.31 | 90.3 ± 14 | 100 ± 2.7 | 103.8 ± 0.85 | 103 ± 3.8 | 108 ± 10 | 106.2 ± 0.079 | 87.7 ± 10 | 95.3 ± 9.5 | 97.3 ± 11 | 97.3 ± 2.8 | 92.4 ± 6.2 | 98.1 ± 6.8 | 94.4 ± 9.3 |
| CN(CCCOc1ccc(Cc2ccccc2)cc1)CCC(=O)O | < 0.0301 | < 0.0301 | < 0.0301 | < 0.0301 | 98 ± 1.6 | 106 ± 1.8 | 102.15 ± 0.037 | 98.7 ± 14 | 101 ± 7.5 | 100 ± 4.3 | 102 ± 4.6 | 110 ± 3.2 | 112 ± 15 | 104 ± 3.2 | 105.1 ± 0.41 | 114 ± 20 | 99.6 ± 0.52 | 100 ± 2.7 | 103 ± 9.3 | 97.8 ± 4.1 | 99.54 ± 0.33 | 98.6 ± 0.22 | 101 ± 5.6 | 93.3 ± 3.2 |
| Cc1ccc(-c2cc(C(F)(F)F)nn2-c2ccc(S(N)(=O)=O)cc2)cc1 [Celecoxib] | < 0.0301 | < 0.0301 | < 0.0301 | < 0.0301 | 104 ± 1.8 | 103 ± 1.3 | 101 ± 1.5 | 102 ± 3.9 | 99.7 ± 2.2 | 90.4 ± 19 | 87.7 ± 19 | 98.6 ± 12 | 101 ± 2.7 | 100 ± 3.8 | 97.67 ± 0.35 | 96.2 ± 5.6 | 106 ± 7.8 | 105 ± 8.1 | 103 ± 6.2 | 122 ± 8.5 | 114.8 ± 0.68 | 110.57 ± 0.073 | 104 ± 3 | 125 ± 10 |
| CCc1c(C(=O)C(N)=O)c2c(OCC(=O)O)cccc2n1Cc1ccccc1 [Varespladib] |  |  |  |  | 97.7 ± 5.8 | 101 ± 3.8 | 92.6 ± 6.1 | 103 ± 4.1 | 99.9 ± 7 | 95.7 ± 2.9 | 93.5 ± 2.6 | 99.9 ± 18 | 102 ± 5.3 | 103 ± 8.2 | 97 ± 3.3 | 107 ± 3.4 | 100.2 ± 0.46 | 97.5 ± 1.5 | 92.9 ± 2.3 | 97.7 ± 1.4 | 97 ± 6.2 | 98.1 ± 5.8 | 89.1 ± 4.8 | 97.2 ± 11 |
| CCc1oc2ccccc2c1C(=O)c1cc(Br)c(O)c(Br)c1 [Benzbromarone] | < 0.0301 | < 0.0301 | < 0.0301 | < 0.0301 | 98.7 ± 1.8 | 101 ± 1.1 | 95.9 ± 1.3 | 93.8 ± 3.1 | 99.3 ± 1.6 | 99 ± 2.1 | 104 ± 4.5 | 99.8 ± 1 | 98.9 ± 1.8 | 101 ± 4 | 105 ± 9.6 | 97.7 ± 4.2 | 102 ± 2.5 | 103 ± 2.3 | 102.3 ± 0.5 | 118 ± 10 | 99.81 ± 0.45 | 101.1 ± 0.99 | 97.85 ± 0.96 | 98 ± 12 |
| N[C@@H](CC(=O)N1CCn2c(nnc2C(F)(F)F)C1)Cc1cc(F)c(F)cc1F [Sitagliptin] | < 0.0301 | < 0.0301 | < 0.0301 | < 0.0301 | 103 ± 1.8 | 97.61 ± 0.86 | 97.9 ± 1.7 | 82.9 ± 14 | 108 ± 6.3 | 102 ± 1.8 | 104 ± 5.4 | 104 ± 7.1 | 103 ± 1.1 | 100 ± 1.7 | 99.4 ± 5.9 | 99.5 ± 6.1 | 103 ± 1.9 | 101 ± 1.9 | 107 ± 4.7 | 114 ± 13 | 109 ± 19 | 101 ± 2 | 97.9 ± 3.2 | 94.2 ± 17 |
| CCCCCCCC/C=C\CCCCCCCC(=O)Nc1ccccc1 [Octadec-9-Enoic Acid Phenylamide] | < 0.0301 | < 0.0301 | < 0.0301 | < 0.0301 | 99.2 ± 1.6 | 94.5 ± 9.6 | 93 ± 1.7 | 98.2 ± 4.6 | 98.61 ± 0.52 | 91.3 ± 13 | 98 ± 9.1 | 99 ± 3.9 | 104 ± 4.4 | 103 ± 5.8 | 103 ± 4.3 | 106 ± 1.2 | 101 ± 1.6 | 101 ± 3.4 | 98.7 ± 4.8 | 108 ± 10 | 90.3 ± 8.5 | 105 ± 3.8 | 91.5 ± 6.8 | 91.3 ± 8.9 |
| OC[C@H]1NC[C@H](O)[C@@H](O)[C@@H]1O [Duvoglustat] | < 0.0301 | < 0.0301 | < 0.0301 | < 0.0301 | 96.9 ± 6.2 | 99.3 ± 1.8 | 97.4 ± 5.2 | 97.9 ± 10 | 99.7 ± 3.4 | 95.3 ± 2.3 | 92.82 ± 0.14 | 108 ± 14 | 96.3 ± 3.1 | 102 ± 3.9 | 107 ± 1.9 | 108 ± 8.1 | 96.5 ± 7.2 | 102 ± 2.6 | 105 ± 8.7 | 109 ± 1.7 | 94 ± 10 | 101.5 ± 0.68 | 95.8 ± 6.5 | 106 ± 4.1 |
| O=C(NCCN1CCC(n2c(O)nc3ccccc32)CC1)c1cc2cc(F)ccc2[nH]1 [FIPI] | < 0.0301 | < 0.0301 | < 0.0301 | < 0.0301 | 104 ± 2.1 | 101.7 ± 0.73 | 98.6 ± 1.2 | 106 ± 9.6 | 99.7 ± 3.9 | 100.3 ± 0.26 | 99.3 ± 1.1 | 105.7 ± 0.28 | 103 ± 14 | 104 ± 2.4 | 102 ± 6.9 | 110 ± 12 | 102 ± 4.5 | 108 ± 4.5 | 106 ± 5.5 | 110 ± 1.8 | 107 ± 3.7 | 107 ± 3 | 91.2 ± 1.8 | 95.5 ± 7.1 |
| Cc1nc(-c2ccccc2)sc1C(=O)Nc1ccc(S(N)(=O)=O)cc1 | < 0.0301 | < 0.0301 | < 0.0301 | < 0.0301 | 101 ± 2.2 | 103 ± 2.4 | 99.3 ± 3.8 | 101 ± 1.8 | 109 ± 3.9 | 109 ± 1.8 | 104 ± 1.3 | 97.6 ± 6.2 | 96 ± 1.3 | 100.3 ± 1 | 85.9 ± 4.9 | 92 ± 1.2 | 94.8 ± 7.5 | 97.5 ± 1.4 | 91.2 ± 9.1 | 97.9 ± 1.8 | 99.97 ± 0.89 | 98.6 ± 2.6 | 96.25 ± 0.77 | 99.5 ± 6 |
| N#C/C(=C\c1ccc(O)cc1)C(=O)O [alpha-cyano-4-hydroxycinnamic acid] | < 0.0301 | < 0.0301 | < 0.0301 | < 0.0301 | 99.4 ± 2.6 | 98.9 ± 6.6 | 101 ± 11 | 90.3 ± 2.3 | 101 ± 2 | 98.8 ± 2.9 | 103 ± 2.3 | 99.16 ± 0.25 | 102.35 ± 0.098 | 95.79 ± 0.61 | 98.6 ± 4.6 | 95.5 ± 3 | 101 ± 4.6 | 99.8 ± 2.5 | 97.5 ± 6.4 | 94.7 ± 5.4 | 101 ± 1.7 | 98.6 ± 2 | 95.5 ± 2 | 91.3 ± 5.2 |
| COc1ccc2c(NC(=O)Nc3cccc(C(F)(F)F)n3)ccnc2c1 | < 0.0301 | < 0.0301 | < 0.0301 | < 0.0301 | 100 ± 3.6 | 101.7 ± 0.71 | 95.4 ± 4.6 | 104 ± 10 | 99.88 ± 0.16 | 82.9 ± 21 | 95.5 ± 3 | 73.9 ± 48 | 104.1 ± 0.52 | 103 ± 2.9 | 99.2 ± 1.9 | 98.4 ± 18 | 101.3 ± 0.29 | 103 ± 5.3 | 95.9 ± 8.1 | 86.5 ± 24 | 101 ± 8.5 | 111 ± 1.3 | 92.5 ± 9.2 | 121 ± 12 |
| CC[C@H](C)[C@H](N)C(=O)N1CCSC1 [P32/98] | < 0.0301 | < 0.0301 | < 0.0301 | < 0.0301 | 99.83 ± 0.39 | 99.4 ± 4 | 99.6 ± 1.6 | 105 ± 1.3 | 97.4 ± 1.5 | 105 ± 3.5 | 100 ± 3.4 | 106 ± 19 | 102 ± 5.5 | 99.5 ± 1.5 | 98.8 ± 3.1 | 96.3 ± 2 | 98.4 ± 1.6 | 98.74 ± 0.79 | 98.7 ± 4.2 | 105 ± 3.8 | 95.6 ± 4 | 97.8 ± 4.4 | 96.6 ± 6.2 | 101 ± 9.5 |
| Cc1cc(C(=O)NNCc2ccccc2)no1 [Isocarboxazid] | < 0.0301 | < 0.0301 | < 0.0301 | < 0.0301 | 103 ± 2.5 | 102 ± 8.1 | 101 ± 4 | 102 ± 2.6 | 103 ± 6.9 | 101 ± 3.7 | 102 ± 6 | 96.8 ± 7.7 | 94.9 ± 20 | 96.3 ± 7.4 | 87 ± 17 | 86.6 ± 22 | 99.03 ± 0.43 | 99.7 ± 2 | 102 ± 1.1 | 103 ± 3.1 | 101 ± 2.6 | 100 ± 1.7 | 98.2 ± 5.2 | 90 ± 3.2 |
